Source: patent US20260356834A1, “ANTICONVULSIVE COMPOUNDS AND USES THEREOF” (Jazz Pharmaceuticals Research UK Limite, priority 2023, published 2026)
Where two headings read alike, the source gives them in different places. Marks after values point to notes of the source that are not given here.

Key:
C57BL/6J mice [1] = experiment: mouse maximal electroshock seizure threshold model using minimal sample sizes (mini-MEST); conditions: 30 min post dose
Procedure: An increase in seizure threshold is indicative of an anticonvulsive effect.
The ability of a test compound to alter the stimulus intensity, expressed as current (mA), required to induce the presence of tonic hind limb extensor convulsions, is assessed in the MEST.
In the mini-MEST test, a lower n number is used.
Male C57BL/6J mice were housed in groups of 6. Mice were kept under standard conditions (12 hour light cycle; light intensity of 25-75 lux) and fed a diet of certified rodent CR 14% protein rodent diet (LabDiet® 4CR4). Mice were 8-9 weeks old at the start of the study.
Naïve mice were acclimatised to the procedure room in their home cages for up to 7 days, with food and water available ad libitum.
All animals were weighed at the beginning of the study and randomly assigned to treatment groups based on a mean distribution of body weight across groups.
The first animal within a treatment group was given a shock at the expected or estimated CC50 current. For subsequent animals, the current was lowered or raised depending on the convulsions outcome from the preceding animal in log scale intervals.
Data generated from each treatment group were used to calculate the CC50±SEM values for the treatment group.
Vehicle: (5% ethanol, 10% Solutol® (Kolliphor® HS 15), 85% saline). 1 mL of ethanol, 2 mL of Solutol™ were warmed to 60 °C, in 17 mL of 0.9% saline.
Test compounds: 5-50 mg/kg in a 1:2:17 ethanol:Solutol®:saline formulation (as used for vehicle).

C57BL/6J mice [2] = experiment: mouse maximal electroshock seizure threshold model (MEST); format: in vivo; conditions: for CC50 +/− SEM: HPMC vehicle; for Change from vehicle (CC50): vs HPMC vehicle
Procedure: Vehicle=1:2:17 ethanol:Solutol® (Kolliphor® HS 15):saline: 1 mL of ethanol and 2 mL of solutol were warmed to 60 °C and 17 mL of 0.9% saline was added slowly. […]
Vehicle=0.5% HPMC and 0.1% Tween 80:0.5% HPMC and 0.1% Tween 80 in water.

RjOrl: Swiss mice = experiment: mouse 6 Hz (44 mA) model of partial seizures; format: in vivo; conditions: for Mean Forelimb Clonus +/− SEM: score 0-2; for Change from vehicle (forelimb clonus): vs vehicle (HPMC)
From the text: The 6 Hz (44 mA) model of partial seizures, which detects anticonvulsant activity, follows that described by Brown et al. 1953.
[…] A decrease in forelimb clonus score is indicative of protection from seizure and an anticonvulsive effect.
When conducted at a 44 mA stimulus intensity in mice, the 6 Hz test can differentiate compounds with potential for the treatment of focal-onset seizures that are often resistant to current anti-epileptic drugs.
Male RjOrl: Swiss mice (Janvier Labs, 53940 Le Genest-Saint-Isle, France), 5 weeks old, weighing 27-38 g at the beginning of the experiment. Animals were acclimatized to the Test Facility for at least 5 days after delivery and randomly housed in groups of 5 to 8 in macrolon cages on wood litter with free access to food and water.
The animal house was maintained under artificial lighting (12 hours) between 7:00 and 19:00 in a controlled ambient temperature of 22±2 °C and relative humidity between 30-70%.
Before transcorneal stimulation, a drop of tetracaine solution (1%) was applied on each eye of the mouse for local anesthesia. Between 1-10 minutes later and at the designated pre-treatment (see below), the mice were administered a rectangular current (44 mA, rectangular pulse: 0.2 ms pulse width, 3 s duration, (6 Hz) via corneal electrodes connected to a constant current shock generator (Ugo Basile: type 7801).
The results for the number of seizures as reflected by forelimb clonus were recorded immediately after current administration. Forelimb clonus was scored as absent (0=no forelimb clonus), mild (1=clonus with one forelimb) and strong (2=clonus with both forelimbs). The experimenters were blinded to the treatment. […]
The administration volume was 10 mL/kg.
Due to the number of animals tested, the experiment was divided in 2 sub-experiments on 2 consecutive days with equivalent numbers of mice per group and per sub-experiment.
Data were discrete values so considered to be non-normally distributed based on validation data, therefore non-parametric tests were utilized. Quantitative data (scores) with the test substance were analyzed by comparing test compound-treated groups with the 1:2:17 vehicle control using Kruskal-Wallis test with Dunn's multiple comparisons test when the Kruskal-Wallis test was significant. Quantitative data with the reference substance were analyzed using Mann-Whitney U test as compared to saline vehicle.

C57BL/6J mice [3] = conditions: known convulsive agent; cited from earlier work
C57BL/6J mice [4] = conditions: known convulsive agent; cited from earlier work; remark: listed apart in the source

Row | Compound | CC50 +/− SEM (C57BL/6J mice [1]; 30 mg/kg i.p.) [mA] | Change from vehicle (CC50) (C57BL/6J mice [1]; 30 mg/kg i.p.) [%] | also measured
1 | CCCc1cc(O)c(-c2cccn3ccnc23)c(O)c1 [Compound 1, 2-(imidazo[1,2-a]pyridin-8-yl)-5-propylbenzene-1,3-diol] | 92.9 ± 1.1 | 200 | –
2 | CCCc1cc(O)c(-c2c(C)ccn3cc(C)nc23)c(O)c1 [Compound 3, 2-(2,7-Dimethylimidazo[1,2-a]pyridin-8-yl)-5-propylbenzene-1,3-diol] | 35.3 ± 1.1 | 32 | –
3 | CCCc1cc(O)c(-c2c(C(F)(F)F)ccn3ccnc23)c(O)c1 [Compound 5, 2-(7-trifluoromethylimidazo[1,2-a]pyridin-8-yl)-5-propylbenzene-1,3-diol] | <33.0 | <12 | –
4 | CCCc1cc(O)c(-c2c(Cl)ccn3ccnc23)c(O)c1 [Compound 6, 2-(7-Chloroimidazo[1,2-a]pyridin-8-yl)-5-propylbenzene-1,3-diol] | 49.9 ± 1.9 | 70 | –
5 | CCCc1cc(O)c(-c2c(C)c(C)cn3ccnc23)c(O)c1 [Compound 7, 2-(6,7-Dimethylimidazo[1,2-a]pyridin-8-yl)-5-propylbenzene-1,3-diol] | 53.5 ± 1.1 | 100 | –
6 | CCCc1cc(O)c(-c2c(F)ccn3ccnc23)c(O)c1 [Compound 8, 2-(7-Fluoroimidazo[1,2-a]pyridin-8-yl)-5-propylbenzene-1,3-diol] | 65.8 ± 1.9 | 145 | –
7 | CCCc1cc(O)c(-c2c(C)ccn3c(C)cnc23)c(O)c1 [Compound 9, 2-(3,7-Dimethylimidazo[1,2-a]pyridin-8-yl)-5-propylbenzene-1,3-diol] | 58.6 ± 1.6 | 152 | –
8 | CCCc1cc(O)c(-c2c(C)ccn3c(Cl)cnc23)c(O)c1 [Compound 10, 2-(3-Chloro-7-methylimidazo[1,2-a]pyridin-8-yl)-5-propylbenzene-1,3-diol] | <33.0 ± 0.0 | <29 | –
9 | CCCc1cc(O)c(-c2c(C)c(F)cn3ccnc23)c(O)c1 [Compound 11, 2-(6-Fluoro-7-methylimidazo[1,2-a]pyridin-8-yl)-5-propylbenzene-1,3-diol] | – | – | CC50 +/− SEM (C57BL/6J mice [2]; 5 mg/kg p.o., 15 min): 25.8 ± 1.9 mA; Change from vehicle (CC50) (C57BL/6J mice [2]; 5 mg/kg p.o., 15 min): −3%; CC50 +/− SEM (C57BL/6J mice [2]; 25 mg/kg p.o., 15 min): 37.5 ± 2.2 mA; Change from vehicle (CC50) (C57BL/6J mice [2]; 25 mg/kg p.o., 15 min): 42%***; CC50 +/− SEM (C57BL/6J mice [2]; 50 mg/kg p.o., 30 min): 100.8 ± 3.9 mA; Change from vehicle (CC50) (C57BL/6J mice [2]; 50 mg/kg p.o., 30 min): 281%***; CC50 +/− SEM (C57BL/6J mice [2]; 100 mg/kg p.o., 30 min): 250.0 ± 3.7 mA; Change from vehicle (CC50) (C57BL/6J mice [2]; 100 mg/kg p.o., 30 min): 843%***; Mean Forelimb Clonus +/− SEM (RjOrl: Swiss mice; 25 mg/kg p.o., 15 min): 0.85 ± 0.13; Change from vehicle (forelimb clonus) (RjOrl: Swiss mice; 25 mg/kg p.o., 15 min): −15%; Mean Forelimb Clonus +/− SEM (RjOrl: Swiss mice; 50 mg/kg p.o., 30 min): 0.55 ± 0.11; Change from vehicle (forelimb clonus) (RjOrl: Swiss mice; 50 mg/kg p.o., 30 min): −45%; Mean Forelimb Clonus +/− SEM (RjOrl: Swiss mice; 100 mg/kg p.o., 30 min): 0.80 ± 0.14; Change from vehicle (forelimb clonus) (RjOrl: Swiss mice; 100 mg/kg p.o., 30 min): −20%; Mean Forelimb Clonus +/− SEM (RjOrl: Swiss mice; 200 mg/kg p.o., 60 min): 0.75 ± 0.12; Change from vehicle (forelimb clonus) (RjOrl: Swiss mice; 200 mg/kg p.o., 60 min): −25%
10 | CCCc1cc(O)c(-c2c(C)ccn3cc(Cl)nc23)c(O)c1 [Compound 12, 2-(2-Chloro-7-methylimidazo[1,2-a]pyridin-8-yl)-5-propylbenzene-1,3-diol] | 57.3 ± 1.9 | 145 | –
11 | CCCCCc1cc(O)c(-c2c(C)ccn3ccnc23)c(O)c1 [Compound 13, 2-(7-Methylimidazo[1,2-a]pyridin-8-yl)-5-pentylbenzene-1,3-diol] | 92.9 ± 1.1 | 263 | –
12 | Cc1ccn2ccnc2c1-c1c(O)cccc1O [Compound 14, 2-(7-Methylimidazo[1,2-a]pyridin-8-yl)benzene-1,3-diol] | <33.0 | <52 | –
13 | CCCc1cc(O)c(-c2c(C)ccn3cc(C(F)(F)F)nc23)c(O)c1 [Compound 15, 2-(2-Trifluoromethyl-7-methylimidazo[1,2-a]pyridin-8-yl)-5-propylbenzene-1,3-diol] | 35.3 ± 1.1 | 62 | –
14 | CCCc1cc(O)c(-c2c(C)c(C(F)(F)F)cn3ccnc23)c(O)c1 [Compound 16, 2-(6-Trifluoromethyl-7-methylimidazo[1,2-a]pyridin-8-yl)-5-propylbenzene-1,3-diol] | <33.0 | <35 | –
15 | CCCCCc1cc(O)c(-c2c(C)c(Cl)cn3ccnc23)c(O)c1 [Compound 17, 2-(6-Chloro-7-methylimidazo[1,2-a]pyridin-8-yl)-5-pentylbenzene-1,3-diol] | 80.9 ± 10.8 | 231 | –
16 | CCCc1cc(O)c(-c2c(C3CC3)ccn3ccnc23)c(O)c1 [Compound 18, 2-(7-Cyclopropylimidazo[1,2-a]pyridin-8-yl)-5-propylbenzene-1,3-diol] | 80.9 ± 1.1 | 216 | CC50 +/− SEM (C57BL/6J mice [1]; 50 mg/kg p.o.): 49.9 ± 1.9 mA; Change from vehicle (CC50) (C57BL/6J mice [1]; 50 mg/kg p.o.): 86%
17 | Cc1c(Cl)cn2ccnc2c1-c1c(O)cc(Cl)cc1O [Compound 19, 5-Chloro-2-(6-chloro-7-methylimidazo[1,2-a]pyridin-8-yl)benzene-1,3-diol] | – | – | CC50 +/− SEM (C57BL/6J mice [1]; 50 mg/kg p.o.): 57.3 ± 1.9 mA; Change from vehicle (CC50) (C57BL/6J mice [1]; 50 mg/kg p.o.): 86%
18 | CCC(C)(C)c1cc(O)c(-c2c(C)c(Cl)cn3ccnc23)c(O)c1 [Compound 20, 2-(6-Chloro-7-methylimidazo[1,2-a]pyridin-8-yl)-5-(tert-pentyl)benzene-1,3-diol] | 40.6 ± 1.1 | 59 | –
19 | CCC(C)(C)c1cc(O)c(-c2c(C)ccn3ccnc23)c(O)c1 [Compound 21, 2-(7-Methylimidazo[1,2-a]pyridin-8-yl)-5-(tert-pentyl)benzene-1,3-diol] | <33.0 | – | –
20 | Cc1ccn2ccnc2c1-c1c(O)cc(C2CCCC2)cc1O [Compound 22, 5-Cyclopentyl-2-(7-methylimidazo[1,2-a]pyridin-8-yl)benzene-1,3-diol] | 57.3 ± 1.9 | 124 | –
21 | CCCc1cc(O)c(-c2c(C)c(C3CC3)cn3ccnc23)c(O)c1 [Compound 23, 2-(6-Cyclopropyl-7-methylimidazo[1,2-a]pyridin-8-yl)-5-propylbenzene-1,3-diol] | <33.0 | <52 | –
22 | Cc1c(F)cn2ccnc2c1-c1c(O)cc(CCC(F)(F)F)cc1O [Compound 24, 2-(6-Fluoro-7-methylimidazo[1,2-a]pyridin-8-yl)-5-(3,3,3-trifluoropropyl)benzene-1,3-diol] | – | – | CC50 +/− SEM (C57BL/6J mice [1]; 25 mg/kg p.o.): 92.9 ± 1.1 mA; Change from vehicle (CC50) (C57BL/6J mice [1]; 25 mg/kg p.o.): 272%; CC50 +/− SEM (C57BL/6J mice [1]; 50 mg/kg p.o.): >131.0 mA; Change from vehicle (CC50) (C57BL/6J mice [1]; 50 mg/kg p.o.): >424%
23 | picrotoxin | – | – | seizure threshold (C57BL/6J mice [3]): a reduction in seizure threshold; seizure threshold (C57BL/6J mice [4]): a reduction in seizure threshold
